In publication PMC3591530 (Molecular Imaging and Biology, 2012):
Each block holds one compound with its values, some of them ahead of it. Where a SMILES comes first, the peptide text is derived from it. [ ]: non-standard residue; d: D form. Tyr(3-I) = N[C@@H](Cc1ccc(O)c(I)c1)C(=O)O

Experiments:
in vivo = assay: in vivo; set-up: species or system Balb/c nu/nu mice; conditions: female, Balb/c nu/nu, mouse, iv, 1 MBq, total radioactivity; for tissue to tissue ratio at 0.25 h: Tumor-to-organ ratio
Protocol: (§1) Organ distribution studies were carried out in 9-week-old female Balb/c nu/nu mice (Charles River WIGA), carrying subcutaneously transplanted human pancreatic cancer BxPC3 tumors. Tumor implantation was performed through injection of a cell suspension (4 × 10^6 cells in OPTI-MEM) (Gibco, Invitrogen Life Technologies) into the mouse trunk. After the tumors were grown to a size of approximately 1.0 cm^3, 1 MBq of ^131I-labeled PDGFR-P1 was injected into the tail vein, and at 15 min p.i. the animals were euthanized. Tumor, blood, and healthy tissues were removed, weighed, and measured with a γ-counter (LB […]; Berthold Technologies). Organ uptake calculation was performed as percentage injected dose per gram tissue (% ID/g). To avoid bias due to blood background radioactivity, uptake in blood-free organs was determined with perfusion experiments. Within these experiments, blood was removed through a catheter in the ascending aorta of the anesthesized animal and perfusion with approximately 25 ml 0.9% NaCl was performed via a cut in the animal liver. After perfusion, samples of tumor and organs were removed and measured as described. All animal experiments were carried out in conformity with the German and European laws for animal protection.

BxPC3 tumors = assay: in vivo; set-up: species or system Balb/c nu/nu mice; conditions: female, Balb/c nu/nu, mouse, iv, 1 MBq, 0.25 h
Protocol: as §1

[1] = biological target: T1, extracellular domain of human PDGFRβ (Homo sapiens, UniProt P09619); format: binding; conditions: pH 7.4
T1 construct: The extracellular domain of PDGFRβ was recombinantly synthesized using the Flp-In system; Fc (Fcγ from pSEC-EGP-2-Fcγ vector) (C); made in house; host or cells: Flp-In-293 human embryonic kidney cells
T1 sequence (P09619 33-532 limits assumed): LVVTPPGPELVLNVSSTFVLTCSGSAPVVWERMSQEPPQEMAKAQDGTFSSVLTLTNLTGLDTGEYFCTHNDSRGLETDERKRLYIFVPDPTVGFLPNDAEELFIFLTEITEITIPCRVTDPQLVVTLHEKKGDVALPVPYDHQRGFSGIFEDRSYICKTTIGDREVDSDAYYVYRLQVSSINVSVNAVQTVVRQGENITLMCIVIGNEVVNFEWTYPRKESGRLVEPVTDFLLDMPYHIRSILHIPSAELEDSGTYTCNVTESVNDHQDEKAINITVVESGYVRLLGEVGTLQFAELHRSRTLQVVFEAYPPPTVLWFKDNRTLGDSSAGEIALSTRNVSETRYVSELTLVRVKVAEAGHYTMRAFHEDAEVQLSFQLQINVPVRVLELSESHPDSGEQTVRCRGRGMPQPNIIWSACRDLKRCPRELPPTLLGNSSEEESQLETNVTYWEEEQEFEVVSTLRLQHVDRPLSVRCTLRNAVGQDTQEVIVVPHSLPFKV
Protocol: Binding of ^125I-labeled PDGFR-P1 was investigated on immobilized extracellular domain of human PDGFRβ, EGFR, and FGFR. The target proteins were incubated at a concentration of 25 nM in 96-well Maxisorp^TM plates (Nunc GmbH & Co. KG, Germany) for 24 h and the plates were washed thrice with 100 μl PBS pH 7.4. ^125I-labeled PDGFR-P1 was incubated with the target in 100 μl PBS pH 7.4 for 60 min. The unbound activity was removed by washing with 300 μl ice-cold PBS pH 7.4. Bound radioligand was determined through degradation with 100 μl NaOH 0.3 M and radioactivity measurement. Radioligand binding was calculated as percentage applied dose.

BxPC3 cells = format: binding, human; conditions: 24 h
Protocol: (§2) Three hundred thousand BxPC3, MCF7, PDGFRβ-tr-HEK, CaIX-tr-HEK, or HEK293wt cells were cultivated in six-well plates at 37°C for 24 h. Cells were blocked with RPMI 1640 containing 1% milk powder and the medium was replaced with 1 ml fresh medium (without FCS) containing 0.5–1.5 × 10^6 cpm ^125I-labeled peptide. After incubation at 37°C for various time periods (10 min to 6 h), the medium was removed and the cells were washed with PBS. Subsequently, cell lysis was performed with 0.5 ml NaOH 0.3 M and the bound radioactivity was measured with a γ-counter and calculated as percentage applied dose per 10^6 cells. Specific binding was determined through co-incubation of the radioligand with the unlabeled PDGFR-P1 peptide at various concentrations (10^−4 to 10^−10 M). A dodecapeptide identified with phage display by panning against the extracellular domain of human carbonic anhydrase IX (CaIX-P1) as well as a derivative of a dodecapeptide identified with phage display on prostate carcinoma cells (DUP-1–9) were used as negative control competitors.

human serum = conditions: 37°C, up to 20 h
PDGFR-tr-HEK cells = assay: In vitro binding kinetics on PDGFRβ-transfected HEK293 cells; set-up: species or system human; conditions: kinetic studies, vs HEK293wt and CaIX-tr-HEK cells, 37°C, serum-free medium, p < 0.05
Protocol: as §2

Stability in human serum = format: in vitro ADME; conditions: 37°C, HPLC analysis
Protocol: The stability of PDGFR-P1 was investigated in human serum. ^125I-labeled peptide was incubated at 37°C in human serum. At time points varying from 5 min to 20 h, aliquots were taken, mixed with equal volume acetonitrile, to precipitate serum proteins and centrifuged for 5 min at 13,000 rpm. Serum degradation products were determined by HPLC analysis of the supernatant.

tissue uptake at 0.25 h (in vivo; Activity concentration in blood): 5.4 %ID/g
tissue uptake at 0.25 h (in vivo; Activity concentration in kidney): 10.6 %ID/g
tissue uptake at 0.25 h (in vivo; Tumor accumulation): 3.2 %ID/g
tissue to tissue ratio at 0.25 h (in vivo; Brain): 8.7
tissue to tissue ratio at 0.25 h (in vivo; Intestinum): 1.43
tissue to tissue ratio at 0.25 h (in vivo; Kidney): 0.299
tissue to tissue ratio at 0.25 h (in vivo; Muscle): 2.15
tissue to tissue ratio at 0.25 h (in vivo; Spleen): 1.42
Tumor-to-organ ratio, Brain (BxPC3 tumors): 9.083
Tumor-to-organ ratio, Intestinum (BxPC3 tumors): 1.321
Tumor-to-organ ratio, Kidney (BxPC3 tumors): 0.379
Tumor-to-organ ratio, Muscle (BxPC3 tumors): 2.530
Tumor-to-organ ratio, Spleen (BxPC3 tumors): 1.601
Compound: CC[C@H](C)[C@H](N)C(=O)N1CCC[C@H]1C(=O)N[C@@H](CC(C)C)C(=O)N1CCC[C@H]1C(=O)N1CCC[C@H]1C(=O)N1CCC[C@H]1C(=O)N[C@@H](CO)C(=O)N[C@@H](CCCNC(=N)N)C(=O)N1CCC[C@H]1C(=O)N[C@@H](Cc1ccccc1)C(=O)N[C@@H](Cc1ccccc1)C(=O)N[C@@H](CCCCN)C(=O)N[C@@H](Cc1ccc(O)c(I)c1)C(N)=O [^131I-labeled PDGFR-P1] (H-IPLPPPSRPFFK[Tyr(3-I)]-NH2; N-terminus assumed)

Binding of the radioligand (percentage applied dose) [1]: about 18%
IC50 (BxPC3 cells): 1.4 µM
Compound: CC[C@H](C)[C@H](N)C(=O)N1CCC[C@H]1C(=O)N[C@@H](CC(C)C)C(=O)N1CCC[C@H]1C(=O)N1CCC[C@H]1C(=O)N1CCC[C@H]1C(=O)N[C@@H](CO)C(=O)N[C@@H](CCCNC(=N)N)C(=O)N1CCC[C@H]1C(=O)N[C@@H](Cc1ccccc1)C(=O)N[C@@H](Cc1ccccc1)C(=O)N[C@@H](CCCCN)C(=O)N[C@@H](Cc1ccc(O)cc1)C(N)=O [PDGFR-P1] (H-IPLPPPSRPFFKY-NH2)

cleaved bond (human serum): K-Y
fragment found (human serum): Y-OH
Compound: IPLPPPSRPFFKY-NH2

half-life (Stability in human serum; aliquots 5 min to 20 h, acetonitrile precipitation): 4 min
Compound: CC[C@H](C)[C@H](N)C(=O)N1CCC[C@H]1C(=O)N[C@@H](CC(C)C)C(=O)N1CCC[C@H]1C(=O)N1CCC[C@H]1C(=O)N1CCC[C@H]1C(=O)N[C@@H](CO)C(=O)N[C@@H](CCCNC(=N)N)C(=O)N1CCC[C@H]1C(=O)N[C@@H](Cc1ccccc1)C(=O)N[C@@H](Cc1ccccc1)C(=O)N[C@@H](CCCCN)C(=O)N[C@@H](Cc1ccc(O)c(I)c1)C(N)=O [^125I-labeled PDGFR-P1] (H-IPLPPPSRPFFK[Tyr(3-I)]-NH2; N-terminus assumed)
Binding on PDGFR-tr-HEK cells compared to negative controls (PDGFR-tr-HEK cells): significantly increased binding
Degradation product analysis (Stability in human serum): cleavage of the C-terminal tyrosine over time
